Literature values, collected in US20250312497A1, “METHOD OF TREATING PROSTATE CANCER” (Novartis AG, priority 2022, published 2025).

Columns and labels:
[1] = test system: docetaxel progressing metastatic castration-resistant prostate cancer; details: randomized, 200 patients; P<0.0001; cited from earlier work
mCRPC = details: control arm; prior docetaxel and abiraterone acetate and/or enzalutamide; cited from earlier work

Question: Which “proportion of patients with PSA decline >=50%” value [1] does the source give for CO[C@H]1C(=O)[C@]2(C)[C@@H](OC)C[C@H]3OC[C@@]3(OC(C)=O)[C@H]2[C@H](OC(=O)c2ccccc2)[C@]2(O)C[C@H](OC(=O)[C@H](O)[C@@H](NC(=O)OC(C)(C)C)c3ccccc3)C(C)=C1C2(C)C [cabazitaxel] here?
Answer: 37%

Question: With C[C@]12C=CC(=O)C=C1CC[C@@H]1[C@@H]2C(=O)C[C@@]2(C)[C@H]1CC[C@]2(O)C(=O)CO [prednisone] as the compound, how does the median overall survival (mCRPC) read?
Answer: 9.8 months
